Results on 25 compounds are retold here after patent publication US10030016B2 (Sunesis Pharmaceuticals, Inc., priority 2009, dated 2018).

In experiment [1] the target is PDK1 (Homo sapiens (Human), UniProt O15530). In words: PDK1 kinase assay (coupled PDK1/AKT/FAM-crosstide assay, IMAP fluorescence polarization). The experiment is classed as biochemical. The method in brief:
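Inhibition is derived by 4-parameter fitting of ΔmP from an IMAP fluorescence polarization read of FAM-crosstide (100 nM) phosphorylation. The cascade ran 30 min at 25 °C with 40 μM ATP, using insect-cell GST-PDK1 51-359 (0.75 nM) driving 10 nM unphosphorylated AKT2 140-467-PIFtide fusion.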

Experiment [2] has as its system phospho-akt (Thr308) in PC-3 cells. Description: Inhibition of phospho-akt (Thr308) in PC-3 cells, MSD phospho-akt 308 ELISA kit. The experiment is classed as cell-based. Particulars: Homo sapiens, 2 hours, no serum, read-out: EC50. In short, it runs like this:
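Phospho-Akt (Thr308) levels were measured by MSD ELISA after PC-3 cells received compound for 2 hours in serum-free medium. Controls: DMSO (high), 5 μM wortmannin (low).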

Setting [3] is: inhibition of P308 Akt in PC-3 cells using MSD.
The mark [4] stands for this setting: inhibition of phospo-PDK1 in vitro.
Setting [5] is: inhibition of P308 Akt in PC-3 cells, MSD.

Where two headings read alike, the source gives them in different places. Bounds are passed on as bounds.

For orientation: IC50 means the concentration at which inhibition is half-maximal. Read a low IC50 as higher potency. Broadly, the EC50 is the concentration giving half of the maximal effect.

Chain of PDK1 (O15530 51-359): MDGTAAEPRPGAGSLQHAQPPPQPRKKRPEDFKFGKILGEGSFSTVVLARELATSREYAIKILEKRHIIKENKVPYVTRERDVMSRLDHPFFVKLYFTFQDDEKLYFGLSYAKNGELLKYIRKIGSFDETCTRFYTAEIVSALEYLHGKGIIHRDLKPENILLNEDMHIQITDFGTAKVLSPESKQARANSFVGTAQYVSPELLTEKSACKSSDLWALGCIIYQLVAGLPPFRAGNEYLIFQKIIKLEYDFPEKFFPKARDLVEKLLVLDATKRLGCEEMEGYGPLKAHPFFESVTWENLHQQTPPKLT

In experiment [1] (inhibition of PDK1 in vitro), `C[C@H](NC(=O)c1nc(C#N)cnc1NCc1ccc(-c2cnc3c(c2)c(N)nn3C)cc1)c1ccc(F)c(F)c1` [Example 414, (S)-3-(4-(3-amino-1-methyl-1H-pyrazolo[3,4-b]pyridin-5-yl)benzylamino)-6-cyano-N-(1-(3,4-difluorophenyl)ethyl) pyrazine-2-carboxamide] returned an IC50 of 1000 to 5000 nM. Moreover, the EC50 in experiment [2] (setting [3]) lay in the range of 1000 to 10000 nM.

In experiment [1] (setting [4]), `O=C(NCc1ccc(F)c(F)c1)c1cccnc1NCc1ccc(-c2ccn3ncnc3c2)s1` [Example 8.14.4, N-(3,4-difluorobenzyl)-2-({[5-([1,2,4]triazolo [1,5-a]pyridin-7-yl)thiophen-2-yl]methyl}amino)pyridine-3-carboxamide] came in with an IC50 of 1000 to 5000 nM. The EC50 in experiment [2] (setting [5]) is above 10000 nM.

Regarding `Cc1[nH]c(/C=C2\C(=O)Nc3cc(/C=C/CNc4ncccc4C(=O)NCc4ccc(F)c(F)c4)ccc32)c(C)c1C(=O)N1CCOCC1` [Example 15.18, N-(3,4-Difluoro-benzyl)-2-((E)-3-{3-[1-[3,5-dimethyl-4-(morpholine-4-carbonyl)-1H-pyrrol-2-yl]-meth-(Z)-ylidene]-2-oxo-2,3-dihydro-1H-indol-6-yl}-allylamino)-nicotinamide], the IC50 in experiment [1] (setting [4]) was below 100 nM. Besides, in experiment [2] (setting [5]), the EC50 was below 1000 nM.

For `C#CCNC(=O)c1cc(C(F)(F)F)cnc1NCc1ccc(-c2cnc3[nH]nc(N)c3c2)cc1` [Example 271, 2-(4-(3-amino-1H-pyrazolo [3,4-b]pyridin-5-yl)benzylamino)-N-(prop-2-ynyl)-5-(trifluoromethyl) nicotinamide], in experiment [1] (inhibition of PDK1 in vitro), the IC50 fell in the range of 100 to 1000 nM. For the same compound, in experiment [2] (setting [3]), the EC50 lay in the range of 1000 to 10000 nM.

`Nc1cnc(-c2ccc(CNc3ncc(C(F)(F)F)cc3C(=O)NCc3ccc(F)cc3)cc2)cn1` [Example 383, 2-(4-(5-aminopyrazin-2-yl)benzylamino)-N-(4-fluorobenzyl)-5-(trifluoromethyl)nicotinamide] yielded a half-inhibitory concentration (IC50) in experiment [1] (inhibition of PDK1 in vitro) below 100 nM. Further, in experiment [2] (setting [3]), the concentration for a half-maximal effect (EC50) is below 1000 nM.

For the compound `C[C@H](NC(=O)c1cccnc1NCc1ccc(-c2ccc3ncnc(NC4CNC4)c3c2)s1)c1ccc(F)c(F)c1` [Example 4.36, 2-({5-[4-(Azetidin-3-ylamino)-quinazolin-6-yl]-thiophen-2-ylmethyl}-amino)-N-[(S)-1-(3,4-difluoro-phenyl)-ethyl]-nicotinamide], the IC50 in experiment [1] (setting [4]) was below 100 nM. Besides, the EC50 in experiment [2] (setting [5]) was in the range of 1000 to 10000 nM.

Compound `C[C@H](NC(=O)c1cccnc1NCc1ccc(-c2ccc3ncc(-n4ccnc4N)nc3c2)s1)c1ccc(F)c(F)c1` [Example 4.32, (S)-2-(((5-(3-(2-amino-1H-imidazol-1-yl)quinoxalin-6-yl)thiophen-2-yl)methyl)amino)-N-(1-(3,4-difluorophenyl)ethyl) nicotinamide] displayed an IC50 in experiment [1] (setting [4]) of 100 to 1000 nM. Further, the EC50 in experiment [2] (PC-3, 2 h, inhibition of P308 Akt in PC-3 cells, MSD) is above 10000 nM.

`O=C(NCc1ccc(F)c(F)c1)c1cccnc1NCc1ccccc1-c1c[nH]c2ncccc12` [Example 6.4, N-(3,4-difluorobenzyl)-2-{[2-(1H-pyrrolo[2,3-b]pyridin-3-yl)benzyl]amino}-pyridine-3-carboxamide]: in experiment [1] (setting [4]), the IC50 was above 5000 nM. Further, in experiment [2] (setting [5]), the EC50 was above 10000 nM.

With `Nc1n[nH]c2ncc(-c3ccc(CNc4ncc(C(F)(F)F)cc4C(=O)NC4CC4)cc3)cc12` [Example 260, 2-(4-(3-amino-1H-pyrazolo[3,4-b]pyridin-5-yl)benzylamino)-N-cyclopropyl-5-(trifluoromethyl)nicotinamide], the IC50 in experiment [1] (inhibition of PDK1 in vitro) fell in the range of 100 to 1000 nM. Moreover, the EC50 in experiment [2] (setting [3]) fell in the range of 1000 to 10000 nM.

`Nc1n[nH]c2ncc(-c3ccc(CNc4ncc(C(F)(F)F)cc4C(=O)NC4CCC4)cc3)cc12` [Example 299, 2-(4-(3-amino-1H-pyrazolo [3,4-b]pyridin-5-yl)benzylamino)-N-cyclobutyl-5-(trifluoromethyl)nicotinamide] had an IC50 in experiment [1] (inhibition of PDK1 in vitro) below 100 nM. For the same compound, the EC50 in experiment [2] (setting [3]) lay within 1000 to 10000 nM.

Consider `C[C@H](NC(=O)c1cc(C#N)cnc1NCc1ccc(-c2cnc(N)c(C(=O)NCCN3CCN(C)CC3)n2)cc1)c1ccc(F)cc1` [Example 213, (S)-3-amino-6-(4-((5-cyano-3-(1-(4-fluorophenyl)ethylcarbamoyl)pyridin-2-ylamino)methyl)phenyl)-N-(2-(4-methylpiperazin-1-yl)ethyl)pyrazine-2-carboxamide], for which, in experiment [1] (inhibition of PDK1 in vitro), the IC50 is below 100 nM. Also, the EC50 in experiment [2] (setting [3]) is below 1000 nM.

With `C[C@H](NC(=O)c1cc(C#N)cnc1NCc1ccc(-c2cnc3[nH]nc(CN)c3c2)cc1)c1ccc(F)cc1` [Example 152, (S)-2-(4-(3-(aminomethyl)-1H-pyrazolo[3,4-b]pyridin-5-yl)benzyl-amino)-5-cyano-N-(1-(4-fluorophenyl)ethyl)nicotinamide], in experiment [1] (inhibition of PDK1 in vitro), the IC50 is below 100 nM. Moreover, the EC50 in experiment [2] (setting [3]) lay within 1000 to 10000 nM.

As to `CNC(=O)c1cnc(NCc2ccc(-c3ccc4ncnc(N)c4c3)s2)c(C(=O)NCc2ccc(F)c(F)c2)c1` [Example 7.24.3, 2-({[5-(4-aminoquinazolin-6-yl)thiophen-2-yl]methyl}amino)-N^3-(3,4-difluorobenzyl)-N^5-methylpyridine-3,5-dicarboxamide], in experiment [1] (setting [4]), the IC50 was below 100 nM. Moreover, the concentration giving a half-maximal response (EC50) in experiment [2] (setting [5]) was below 1000 nM.

On to `Nc1ncnc2c1c(-c1ccc(CNc3ncc(C(F)(F)F)cc3C(=O)NCc3ccc(F)c(F)c3)cc1)cn2CCCO` [Example 334, 2-(4-(4-amino-7-(3-hydroxypropyl)-7H-pyrrolo[2,3-d]pyrimidin-5-yl)-benzylamino)-N-(3,4-difluorobenzyl)-5-(trifluoromethyl)nicotinamide], for which the IC50 in experiment [1] (inhibition of PDK1 in vitro) was below 100 nM. Moreover, the EC50 in experiment [2] (setting [3]) is below 1000 nM.

Take `CCn1cc(-c2ccc(CNc3ncc(C(F)(F)F)cc3C(=O)Nc3ccc(F)cc3)cc2)c2c(N)ncnc21` [Example 430, 2-(4-(4-amino-7-ethyl-7H-pyrrolo[2,3-d]pyrimidin-5-yl)benzylamino)-N-(4-fluorophenyl)-5-(trifluoromethyl)nicotinamide]: in experiment [1] (inhibition of PDK1 in vitro), the IC50 was below 100 nM. Moreover, the EC50 in experiment [2] (setting [3]) lay within 1000 to 10000 nM.

Compound `N#Cc1ccc(NC(=O)c2nc(C#N)cnc2NCc2ccc(-c3cnc4[nH]nc(N)c4c3)cc2)cc1` [Example 425, 3-(4-(3-amino-1H-pyrazolo[3,4-b]pyridin-5-yl)benzylamino)-6-cyano-N-(4-cyanophenyl) pyrazine-2-carboxamide] gave a half-maximal inhibitory concentration (IC50) in experiment [1] (inhibition of PDK1 in vitro) below 100 nM. Besides, in experiment [2] (setting [3]), the EC50 is below 1000 nM.

As for `CC(C)Oc1cc(CNc2ncccc2C(=O)N(C)C2CCCCC2)cc(-c2c[nH]c3ncc(C(=O)NC4CC4)cc23)c1` [Example 4.1.6, 3-{3-[({3-[cyclohexyl(methyl)carbamoyl]pyridin-2-yl}amino)methyl]-5-(propan-2-yloxy)phenyl}-N-cyclopropyl-1H-pyrrolo[2,3-b]pyridine-5-carboxamide], in experiment [1] (setting [4]), the IC50 is above 5000 nM. Moreover, the EC50 in experiment [2] (setting [5]) was above 10000 nM.

Take `Nc1n[nH]c2ncc(-c3ccc(CNc4ncc(C(F)(F)F)cc4C(=O)NC4CCCC4)cc3)cc12` [Example 302, 2-(4-(3-amino-1H-pyrazolo [3,4-b]pyridin-5-yl)benzylamino)-N-cyclopentyl-5-(trifluoromethyl)nicotinamide]: the IC50 in experiment [1] (inhibition of PDK1 in vitro) is below 100 nM. Also, the EC50 in experiment [2] (setting [3]) lay within 1000 to 10000 nM.

In turn, `Cn1cc(-c2ccc(CNc3ncc(C(F)(F)F)cc3C(=O)Nc3ccc(F)cc3)cc2)c2c(N)ncnc21` [Example 323, 2-(4-(4-amino-7-methyl-7H-pyrrolo[2,3-d]pyrimidin-5-yl)benzylamino)-N-(4-fluorophenyl)-5-(trifluoromethyl)nicotinamide] gave a half-inhibitory concentration (IC50) in experiment [1] (inhibition of PDK1 in vitro) below 100 nM. The EC50 in experiment [2] (setting [3]) is below 1000 nM.

Take `C[C@H](NC(=O)c1cc(C#N)cnc1NCc1ccc(-c2cnc3[nH]ncc3c2)cc1)c1ccc(F)c(F)c1` [Example 395, 5-Cyano-N-[(S)-1-(3,4-difluoro-phenyl)-ethyl]-2-[4-(1H-pyrazolo[3,4-b]pyridin-5-yl)-benzylamino]-nicotinamide]: the half-maximal inhibitory concentration (IC50) in experiment [1] (inhibition of PDK1 in vitro) was below 100 nM. Moreover, the concentration for a half-maximal effect (EC50) in experiment [2] (setting [3]) is below 1000 nM.

On to `Nc1n[nH]c2ncc(-c3ccc(CNc4ncc(C(F)(F)F)cc4C(=O)Nc4ccc(C(F)(F)F)cc4)cc3)cc12` [Example 296], for which, in experiment [1] (inhibition of PDK1 in vitro), the IC50 is below 100 nM. Also, in experiment [2] (setting [3]), the EC50 is below 1000 nM.

Regarding `CCCc1cnc(NCc2ccc(-c3ccc4ncnc(N)c4c3)s2)c(C(=O)NCc2ccc(F)c(F)c2)n1` [Ex. 10.7, 3-({[5-(4-aminoquinazolin-6-yl)thiophen-2-yl]methyl}amino)-N-(3,4-difluorobenzyl)-6-propylpyrazine-2-carboxamide], the half-maximal inhibitory concentration (IC50) in experiment [1] (setting [4]) lay within 1000 to 5000 nM. Further, the EC50 in experiment [2] (setting [5]) lay within 1000 to 10000 nM.

Turning to `CCCS(=O)(=O)Nc1cnc(NCc2ccc(-c3ccc4ncnc(N)c4c3)s2)c(C(=O)NCc2ccc(F)c(F)c2)c1` [Example 8.6.4], the half-inhibitory concentration (IC50) in experiment [1] (setting [4]) lay in the range of 1000 to 5000 nM. In addition, the EC50 in experiment [2] (setting [5]) was 1000 to 10000 nM.

For `Cn1cc(-c2ccc(CNc3ncc(C#N)nc3C(=O)NCc3cncc(F)c3)cc2)c2c(N)ncnc21` [Example 28, 3-(4-(4-amino-7-methyl-7H-pyrrolo[2,3-d]pyrimidin-5-yl)benzylamino)-6-cyano-N-((5-fluoropyridin-3-yl)methyl)pyrazine-2-carboxamide], the IC50 in experiment [1] (setting [4]) is below 100 nM. Also, the EC50 in experiment [2] (setting [5]) was below 1000 nM.

`COc1cc(F)ccc1NC(=O)c1cc(C(F)(F)F)cnc1NCc1ccc(-c2cnc3[nH]nc(N)c3c2)cc1` [Example 261, 2-(4-(3-amino-1H-pyrazolo [3,4-b]pyridin-5-yl)benzylamino)-N-(4-fluoro-2-methoxyphenyl)-5-(trifluoromethyl)nicotinamide] showed an IC50 in experiment [1] (inhibition of PDK1 in vitro) below 100 nM. In addition, the EC50 in experiment [2] (setting [3]) was 1000 to 10000 nM.
